Test: Pharmacokinetic and distribution experiment (radioactivity in blood and excised organs after tail vein injection)
Format: in vivo
Details: ddy mice; for Adrenal gland/Blood ratio / Radioactivity Distribution, Blood / Radioactivity Distribution, Femur / Radioactivity Distribution, Heart / Radioactivity Distribution, Large intestine / Radioactivity Distribution, Lung / Radioactivity Distribution, Small intestine / Radioactivity Distribution, Spleen / Radioactivity Distribution, Stomach / Adrenal gland/Kidney ratio / Radioactivity Distribution, Adrenal gland / Radioactivity Distribution, Kidney / Radioactivity Distribution, Liver / Radioactivity Distribution, Pancreas / Adrenal gland/Liver ratio: tail vein injection; for Adrenal gland/Blood ratio / Radioactivity Distribution, Blood / Radioactivity Distribution, Femur / Radioactivity Distribution, Heart / Radioactivity Distribution, Large intestine / Radioactivity Distribution, Lung / Radioactivity Distribution, Small intestine / Radioactivity Distribution, Spleen / Radioactivity Distribution, Stomach: 14.8 kBq (4 μCi); for Adrenal gland/Kidney ratio / Radioactivity Distribution, Adrenal gland / Radioactivity Distribution, Kidney / Radioactivity Distribution, Liver / Radioactivity Distribution, Pancreas: 14.8 kBq
Method: (§1) The HPLC fraction of [^125I]PAY15 obtained in Example 3 was concentrated and then diluted with saline. The resulting solution was used in administration. 100 μL of the solution (18.5 kBq (0.5 μCi)) was injected to the tail vein of each of five ddy mice (6 weeks old). Five minutes later, each mouse was decapitated, and blood was collected. Then, organs (adrenal gland, pancreas, heart, lung, stomach, small intestine, large intestine, liver, spleen, kidney, and thyroid gland) were excised. After measurement of their weights, the radioactivities of blood and each excised organ were measured. Also, the point in time when each mouse was decapitated was changed to 5, 15, 30, 60, and 120 minutes later to perform similar operation.
The HPLC fraction of [^125I]PAY21 obtained in Example 6 was concentrated and then diluted with saline. The resulting solution was used in administration to perform the same operation as in Evaluation 1.
as §1, with “[^18F]PAY27 obtained” for “The HPLC fraction of [^125I]PAY15 obtained”, “Example 10” for “Example 3”, “was” for “was concentrated and then”, “solution (14.8” for “solution (18.5”, “kBq (4” for “kBq (0.5”, “and thigh bone)” for “and thyroid gland)”
as §1, with “[^18F]PAY54 obtained” for “The HPLC fraction of [^125I]PAY15 obtained”, “Example 13” for “Example 3”, “was” for “was concentrated and then”, “solution (14.8” for “solution (18.5”, “kBq (4” for “kBq (0.5”, “and thigh bone)” for “and thyroid gland)”

## O=C1CCc2cc(-c3cncc(OCC[18F])c3)cc3c2N1CC3 [[^18F]PAY54, 8-(5-(2-[^18F]fluoroethyloxy)pyridin-3-yl)-1,2,5,6-tetrahydro-4H-pyrrolo[3,2,1-ij]quinolin-4-one]
5 minutes after administration
  radioactivity accumulation in the adrenal gland compared with blood and the kidney: high radioactivity accumulation
5 min
  Adrenal gland/Blood ratio: 1.55 ± 0.43
  Radioactivity Distribution, Blood: 4.5 ± 0.2 % dose/g
  Radioactivity Distribution, Femur: 1.9 ± 0.2 % dose/g
  Radioactivity Distribution, Heart: 4.5 ± 0.5 % dose/g
  Radioactivity Distribution, Large intestine: 3.5 ± 0.3 % dose/g
  Radioactivity Distribution, Lung: 4.6 ± 0.2 % dose/g
  Radioactivity Distribution, Small intestine: 5.6 ± 0.3 % dose/g
  Radioactivity Distribution, Spleen: 3.6 ± 0.2 % dose/g
  Radioactivity Distribution, Stomach: 4.6 ± 1.5 % dose/g
  Adrenal gland/Kidney ratio: 1.60 ± 0.50
  Radioactivity Distribution, Adrenal gland: 7.0 ± 2.1 % dose/g
  Radioactivity Distribution, Kidney: 4.4 ± 0.5 % dose/g
  Radioactivity Distribution, Liver: 7.5 ± 0.5 % dose/g
  Radioactivity Distribution, Pancreas: 3.4 ± 0.3 % dose/g
  Adrenal gland/Liver ratio: 0.95 ± 0.34
15 min
  Adrenal gland/Blood ratio: 0.86 ± 0.15
  Radioactivity Distribution, Blood: 4.5 ± 0.2 % dose/g
  Radioactivity Distribution, Femur: 2.3 ± 0.1 % dose/g
  Radioactivity Distribution, Heart: 3.8 ± 0.2 % dose/g
  Radioactivity Distribution, Large intestine: 6.2 ± 0.5 % dose/g
  Radioactivity Distribution, Lung: 3.7 ± 0.2 % dose/g
  Radioactivity Distribution, Small intestine: 5.3 ± 0.6 % dose/g
  Radioactivity Distribution, Spleen: 3.1 ± 0.2 % dose/g
  Radioactivity Distribution, Stomach: 4.9 ± 0.4 % dose/g
  Adrenal gland/Kidney ratio: 1.11 ± 0.15
  Radioactivity Distribution, Adrenal gland: 3.9 ± 0.8 % dose/g
  Radioactivity Distribution, Kidney: 3.5 ± 0.6 % dose/g
  Radioactivity Distribution, Liver: 6.0 ± 0.4 % dose/g
  Radioactivity Distribution, Pancreas: 2.7 ± 0.2 % dose/g
  Adrenal gland/Liver ratio: 0.64 ± 0.13
30 min
  Adrenal gland/Blood ratio: 0.82 ± 0.13
  Radioactivity Distribution, Blood: 4.3 ± 0.4 % dose/g
  Radioactivity Distribution, Femur: 2.7 ± 0.3 % dose/g
  Radioactivity Distribution, Heart: 3.7 ± 0.5 % dose/g
  Radioactivity Distribution, Large intestine: 8.5 ± 0.5 % dose/g
  Radioactivity Distribution, Lung: 3.4 ± 0.2 % dose/g
  Radioactivity Distribution, Small intestine: 5.0 ± 0.9 % dose/g
  Radioactivity Distribution, Spleen: 3.1 ± 0.1 % dose/g
  Radioactivity Distribution, Stomach: 3.5 ± 0.2 % dose/g
  Adrenal gland/Kidney ratio: 0.98 ± 0.15
  Radioactivity Distribution, Adrenal gland: 3.5 ± 0.4 % dose/g
  Radioactivity Distribution, Kidney: 3.6 ± 0.4 % dose/g
  Radioactivity Distribution, Liver: 5.7 ± 0.6 % dose/g
  Radioactivity Distribution, Pancreas: 2.6 ± 0.2 % dose/g
  Adrenal gland/Liver ratio: 0.61 ± 0.12
60 min
  Adrenal gland/Blood ratio: 1.16 ± 0.15
  Radioactivity Distribution, Blood: 3.5 ± 0.5 % dose/g
  Radioactivity Distribution, Femur: 3.4 ± 0.7 % dose/g
  Radioactivity Distribution, Heart: 2.9 ± 0.5 % dose/g
  Radioactivity Distribution, Large intestine: 7.7 ± 1.2 % dose/g
  Radioactivity Distribution, Lung: 2.9 ± 0.4 % dose/g
  Radioactivity Distribution, Small intestine: 3.7 ± 0.7 % dose/g
  Radioactivity Distribution, Spleen: 2.3 ± 0.6 % dose/g
  Radioactivity Distribution, Stomach: 4.3 ± 0.3 % dose/g
  Adrenal gland/Kidney ratio: 1.40 ± 0.34
  Radioactivity Distribution, Adrenal gland: 4.1 ± 1.0 % dose/g
  Radioactivity Distribution, Kidney: 3.0 ± 0.3 % dose/g
  Radioactivity Distribution, Liver: 5.0 ± 0.3 % dose/g
  Radioactivity Distribution, Pancreas: 2.4 ± 0.4 % dose/g
  Adrenal gland/Liver ratio: 0.82 ± 0.19
120 min
  Adrenal gland/Blood ratio: 0.61 ± 0.63
  Radioactivity Distribution, Blood: 2.8 ± 0.2 % dose/g
  Radioactivity Distribution, Femur: 4.5 ± 0.1 % dose/g
  Radioactivity Distribution, Heart: 2.4 ± 0.4 % dose/g
  Radioactivity Distribution, Large intestine: 7.9 ± 0.7 % dose/g
  Radioactivity Distribution, Lung: 2.2 ± 0.2 % dose/g
  Radioactivity Distribution, Small intestine: 2.4 ± 0.1 % dose/g
  Radioactivity Distribution, Spleen: 2.0 ± 0.2 % dose/g
  Radioactivity Distribution, Stomach: 3.5 ± 0.6 % dose/g
  Adrenal gland/Kidney ratio: 0.58 ± 0.54
  Radioactivity Distribution, Adrenal gland: 2.0 ± 1.5 % dose/g
  Radioactivity Distribution, Kidney: 2.8 ± 0.4 % dose/g
  Radioactivity Distribution, Liver: 4.7 ± 0.6 % dose/g
  Radioactivity Distribution, Pancreas: 1.7 ± 0.2 % dose/g
  Adrenal gland/Liver ratio: 0.38 ± 0.41

Reference: US20140187784A1, “RADIOACTIVE QUINOLINONE DERIVATIVE AND PHARMACEUTICAL DRUG COMPRISING THE SAME” (Nihon Medi-Physics Co., Ltd., priority 2012, published 2014)
